Structures are written as SMILES. Values joined by “and” are separate entries in the source; they are usually repeats but may differ in a detail not shown here. Equal values may be shown once.

`CC(=O)OC1CC2C(CCC3(C)C(C(C)CCCC(C)C)CCC23)C2(C)CCC(=O)C=C12` (centres undefined) [3-oxocholest-4-en-6-yl acetate] gave a melting point of 102 °C. As for `COc1cc(C=O)cc(Cl)c1O` [5-chlorovanillin], the melting point was 164 °C. Then `O/N=C(\c1ccccc1)C(O)c1ccccc1` (centres undefined) [(2E)-2-(Hydroxyimino)-1,2-diphenylethanol], with 154 °C.

In turn, `CC1(C(=O)O)CCCCC1` [1-methylcyclohexanecarboxylic acid] gave a melting point of 38 °C. In the case of `O=C(c1ccccc1)C(O)c1ccccc1` (centres undefined) [Benzoin] it was 137 °C; in that of `CCc1c(C)[nH]c2ccc(N(C)C)cc12` [Medmain], 100 °C. Then `Oc1ccccc1F` [2-fluorophenol], with 15 °C. Then `[2H]c1c([2H])c([2H])c2c([2H])c([2H])c([2H])c([2H])c2c1[2H]` [(~2~H_8_)Naphthalene], with 82 °C. The molecule `O=C(O)c1cccc([N+](=O)[O-])c1` [m-nitrobenzoic_acid] came in with a melting point of 142 °C. Then `COC(=O)c1cccc(N=C=O)c1` [3-(methoxycarbonyl)phenyl isocyanate], with 37 °C; and `O=[N+]([O-])c1ccc2c(c1)OCCOCCOCCOCCO2` [4-nitrobenzo-15-crown-5], with 94 °C. In the case of `C=CCCC=C` [1,5-hexadiene] it was -141 °C; in that of `CC(C)(C)C(=O)O` [2,2-dimethylpropanoic_acid], 36 °C; in that of `CC(C)N` [isopropylamine], -101 °C. `COC(=O)c1cccc([N+](=O)[O-])c1` [methyl 3-nitrobenzoate]: the melting point amounted to 79 °C. Consider `Nc1ccc(Br)cc1` [4-bromoaniline], for which the melting point came out at 63 °C. Then `CCCCCBr` [1-bromopentane], with -88 °C. `O=C1NC(=O)c2c1cccc2[N+](=O)[O-]` [3-nitrophthalimide] returned a melting point of 219 °C. Take `CC1CCC(C(C)C)C(O)C1` (centres undefined) [2-Isopropyl-5-methylcyclohexanol]: the melting point was 34.5 °C. `O=C(O)c1ccccc1Nc1cccc(C(F)(F)F)c1` [Flufenamic Acid] displayed a melting point of 134 °C. `CC(C)/C=N/Nc1ccc([N+](=O)[O-])cc1[N+](=O)[O-]` [(2E)-1-(2,4-Dinitrophenyl)-2-(2-methylpropylidene)hydrazine] had a melting point of 186 °C.

Consider `CCCC(=O)OCC` [ethyl butyrate], for which the melting point was -93 °C.

The molecule `Cc1ccc(C)c(C)c1C` [1,2,3,4-tetramethylbenzene] had a melting point of -6 °C. In the case of `O=C(O)[C@H]1CCCN1C(=O)OCc1ccccc1` [N-benzyloxycarbonyl-D-proline] it was 77 °C; in that of `CC(=O)c1ccc(-c2ccccc2)cc1` [p-acetylbiphenyl], 122 °C; in that of `CCOC(=O)c1ccc(N)cc1` [ethyl 4-aminobenzoate], 90 °C. In the case of `Cc1ccnc2ccccc12` [lepidine], the melting point stood at 10 °C.

For the molecule `CC(C)CC(N)C(=O)O` (stereo in doubt) [D-Leucine], the melting point is 293 °C. In the case of `Cc1cc2nc3c(=O)[nH]c(=O)nc-3n(C[C@H](O)[C@H](O)[C@H](O)CO)c2cc1C` [Riboflavin] it was 280 °C; in that of `OC[C@@H](O)[C@H](O)[C@H](O)[C@@H](O)CO` [dulcitol], 189 °C; in that of `C/C(=C/C(=O)O)C(F)(F)F` [3-(trifluoromethyl)crotonic acid], 29 °C.

In turn, `C#CCCCCCCCCCCCCCC` [1-hexadecyne] yielded a melting point of 15 °C. Then `CCCCCCCCC(=O)CC` [3-undecanone], with 13 °C; and `CCCNC(=O)C(C(F)(F)F)C(F)(F)F` [propanamide, 3,3,3-trifluoro-N-propyl-2-(trifluoromethyl)-], with 106 °C.

In turn, `CCCSc1ccc2[nH]c(NC(=O)OC)nc2c1` [albendazole] yielded a melting point of 208 °C. Then `C=C1C[C@@H]2[C@H](CC[C@]3(C)C(=O)CC[C@@H]23)[C@@]2(C)C=CC(=O)C=C12` [Exemestane], with 155 °C; and `O=Cc1cc(Br)cc(Br)c1` [3,5-dibromobenzaldehyde], with 91 °C. In the case of `C(=N\c1ccccc1)/c1ccccc1` [benzalaniline] it was 51 °C and 49 °C and 46 °C.

Regarding `NC(=O)c1cccc2ccccc12` [naphthalene-1-carboxamide], the melting point was found to be 208 °C. In turn, `Cc1cc(C2(c3cc(C)c(O)c(CN(CC(=O)O)CC(=O)O)c3)OS(=O)(=O)c3ccccc32)cc(CN(CC(=O)O)CC(=O)O)c1O` returned a melting point of 210 °C.

On to `O=Cc1ccc(CO)cc1` [p-hydroxymethyl_benzaldehyde], for which the melting point was 47 °C.

Molecule `CCC=O` [propionaldehyde] registered a melting point of -81 °C. Consider `O=C[C@H](O)[C@@H](O)[C@@H](O)[C@H](O)CO` [D-galactose], for which the melting point was 167 °C.

Turning to `OC1CCCC1` [Cyclopentanol], the melting point is -19 °C. Regarding `CCN(CC)CCOC(=O)C(O)(c1ccccc1)c1ccccc1` [benactyzin], the melting point is 51 °C. Then `Clc1cc(Cl)c(-c2ccc(Cl)c(Cl)c2Cl)cc1Cl` [PCB-138], with 79 °C; and `O=C(O)c1ccc2c(c1)no[n+]2[O-]` [benzofuroxan-5-carboxylic acid], with 128 °C.

Regarding `Oc1cccc(O)c1` [resorcinol], the melting point is 111 °C. In the case of `COc1ccc(C#N)c(Cl)c1OC` [2-chloro-3,4-dimethoxybenzonitrile] it was 102 °C. Then `O=[N+]([O-])c1cccnc1Cl` [2-chloro-3-nitropyridine], with 101 °C; and `O=[N+]([O-])c1cccc(Cl)c1` [1-Chloro-3-nitrobenzene], with 45 °C.

Take `C/C=C/CCCCC` [trans-2-octene]: the melting point is -88 °C. For the molecule `Cc1cc(C(O)=NCC(=N)O)c(C)n1-c1ccc(F)cc1` [OSM-S-19], the melting point came to 194 °C. The molecule `CCCCCCCCCCCCCCCCCCCC(=O)O` [arachidic acid] yielded a melting point of 75 °C. Then `O=C1CCCc2cc3c(c(CSc4ccccc4)c21)-c1ccccc1OC3`, with 91 °C; and `O=[N+]([O-])c1ccc2[nH]ccc2c1` [5-nitroindole], with 141 °C. Regarding `O=C(O)CCCCCCCCC(=O)O` [Sebacic acid], the melting point came to 134 °C. In the case of `O=c1[nH]cc(F)c(=O)[nH]1` [Fluorouracil] it was 281 °C; in that of `OCC(F)(F)F` [2,2,2-Trifluoroethanol], -43.5 °C; in that of `CC(C)(C)c1ccc2oc(-c3ccc(-c4nc5cc(C(C)(C)C)ccc5o4)s3)nc2c1` [2,5-bis(5-tert-butyl-2-benzoxazolyl)thiophene], 201 °C. Then `CCCCOC(=O)c1ccc(O)cc1` [N-butyl 4-hydroxybenzoate], with 69 °C; and `Fc1ccc(N2CCNCC2)cc1` [1-(4-fluorophenyl)piperazine], with 32 °C; and `CCCCCO` [Pentan-1-ol], with -78 °C.

Molecule `c1ccc2[nH]ccc2c1` [indole] returned a melting point of 52 °C.

Broadly, the melting point is the temperature, or range, at which the solid turns liquid.

(Values after the Bradley open melting point set (2014).)
